Columns and labels:
OVCAR8 peritoneal tumors = assay: PCR biodistribution of NSCs and virus in peritoneal tumors with or without cisplatin; type: in vivo; details: 2 days after administration, three tumors per mouse
Protocol: Female NOD-SCID mice (Jackson Labs) that were 6-8 weeks old were inoculated with 2 million OVCAR8.eGFP.ffluc cells via i.p. injection. After 3 weeks, mice (n=3) were administered i.p. 2×10^6 Dil-labeled NSC-CRAd-Survivin-pk7. Two days after NSC injection, tumors were harvested. Three tumors per mouse were digested using proteinase K, DNA was extracted (DNA Extraction from fixed tissues kit, Puragene), quantified using a nanodrop, then amplified by PCR using primers for v-Myc and hexon to test for the presence of NSCs and viral particles respectively. GAPDH was used as a loading control (351 bp). DNA purified from unmodified NSCs and NSC-CRAd-Survivin-pk7 was used as a positive control for PCR amplification of the v-Myc gene (replicon size 170 bp), and hexon (179 bp) respectively. Pure water was used as a negative control. PCR products were analyzed by agarose gel electrophoresis and staining of DNA bands with ethidium bromide. […] Sections (10 μm thick) were collected on positively charged slides (Thermo Fisher Scientific), immunostained for hexon (Goat Anti-Adenovirus FITC Conjugated Polyclonal Antibody, AB1056F, Millipore), counterstained with DAPI (1 ug/mL, Sigma), then imaged using the Zeiss Axio Observer Z1 fluorescence microscope (ZEISS Microscopy). […]

[1] = system: survivin expression in OVCAR8 cell line; assay: RT-PCR analysis of survivin expression after cisplatin, OVCAR8; type: cell-based, human; details: up to 2 days of cisplatin exposure; data not shown
OVCAR8.EGFP.ffluc cells = assay: In vitro synergy experiment, Chou-Talalay analysis; type: cell-based, human; details: cisplatin <1 μM
Protocol: Tumor cells were plated at 3×10^3 cells per well in 96-well plates. Select wells also received NSC.CRAd-Survivin-pk7 at either a 1:1, 1:10, or 1:100 ratio. […] Cultures were incubated for 3 more days. Upon collection, media were replaced with that containing D-luciferin ([…]), and after a 10-min incubation, the resulting luminescent signal was quantified using a SpectraMax M3 microplate reader (Molecular Devices, CA, USA). Results are expressed as the percentage of surviving cells determined by comparing the luciferase signal of each sample relative to untreated control samples considered 100% viable. […] Each condition was replicated in quadruplet, and the experiment was conducted twice.

[2] = system: OVCAR8.EGFP flank xenografts; assay: Subcutaneous flank OVCAR8 xenograft model; type: in vivo, mouse
Protocol: Female athymic nude mice 6-8 weeks of age (Charles River) were maintained under specific pathogen-free conditions at the COH Animal Resource Center, and all procedures were reviewed and approved by the COH Animal Care Committee. A subcutaneous flank xenograft model in nude mice was established using an EGFP and firefly luciferase-expressing ovarian cancer cell line, 2×10^6 OVCAR8.EGFP.ffluc. […] The mice were treated for […] with 1 week off in between each cycle. […] Tumor burden was evaluated via caliper measurements twice weekly over a 5-week period.
Mice began treatments approximately 2 weeks after injection of 5 million OVCAR8.EGFP cells, when the tumors were on average 0.5 cm in diameter (Table 3). The mice were treated for two cycles. Each cycle was 2 weeks long, consisting of 1 week on therapy and 1 week off. Tumor burden was evaluated via caliper measurements twice weekly over a 5-week period.

[3] = system: survivin expression in SKOV3 cell line; assay: RT-PCR analysis of survivin expression after cisplatin, SKOV3; type: cell-based, human; details: up to 2 days of cisplatin exposure; data not shown

With `N.N.[Cl][Pt][Cl]` [cisplatin] the “hexon DNA detected in tumors (virus)” value (OVCAR8 peritoneal tumors) was “Neither hexon nor v-myc DNA was detected”, the “v-myc DNA detected in tumors (NSCs)” value (OVCAR8 peritoneal tumors) was “Neither hexon nor v-myc DNA was detected” and the “survivin expression after cisplatin exposure” value [1] was “did not significantly increase”. For the same molecule, the “effect of low doses of cisplatin on OVCAR8 tumor cells” value (OVCAR8.EGFP.ffluc cells) was “unaffected”, the “tumor volume doubling time after the first treatment” value ([2]; control 7 days) was 13 days and the “tumor volume doubling time after the second treatment” value ([2]; control 15 days) was “not significantly different from that of the saline control”. The “survivin expression after cisplatin exposure” value [3] was “did not significantly increase”.

Reference: patent US11413315B2, “Neural stem cell-mediated cancer treatment” (priority 2018, dated 2022)
